What was measured:
[1] = test system: GFP positive SVZ cells migrating to the olfactory bulb; experiment: Transplantation of GFP SVZ explants: cell migration in vivo; design: species or system mouse
Protocol: 100 μm diameter explants of 1-day-old GFP mice SVZ were incubated fifteen minutes in DMEM supplemented with 10% fetal bovine serum in presence of 0.01 M of p65 or reverse peptide and stereotaxically grafted (0.5 μl) into six weeks old mice SVZ as described in Lois and Alvarez-Buylla (Science, 1994, 264, 1145-1 148). Three or four days after the graft, animals were perfused intracardiacally with a 4% paraformaldehyde solution in PBS. Brains were dissected out, postfixed, cryoprotected, and freezed in isopentane. Sagittal serial sections (12 μm) were cut with a Leica microtome and immunostained as described above. GFP cells arriving in the olfactory bulb after three days were observed using UV fluorescence with a 40× objective (Axioscope, ZEISS) and counted on two different experiments (four animals per condition). The significance of the difference between the two conditions was calvalated by Student's t test.
The effect of PSA mimetic peptides on cell migration in vivo was analysed by grafting tissue and evaluating migration of SVZ cells. Small pieces of SVZ tissue (100 μm diameter) from 1-day-old GFP mice were grafted in the SVZ area of adult mice, in the presence of p65, p65 reverse peptide or in the absence of peptide. The results are illustrated in FIG. 8.

chick retina axons = experiment: Intravitreal injection in chick embryo, retinal whole mount: axon fasciculation and guidance in vivo; details: injected into chicken embryo eyes at E3, retina observed at E9
Protocol: The dashed rectangle indicates the area from which photographs were taken. Arrows point toward the optic fissure. Axons of E9 chick retina injected at E3 with the reverse peptide (C,F) or the p65 peptide (D,G,E,H). Arrowheads show examples of axons that leave their fascicle and run perpendicularly to it.
Injections were performed as described in Monnier et al. (Developmental Biology, 2001, 229, 1-14). Briefly, a 2×2 cm window was cut into the shell over E3 chick embryos. One μl of Fast green with 10 mM of p65 or reverse peptide was injected into the right eye vitreous body using a capillary. After a five-days incubation at 37° C., (E8) retinae were dissected, spread onto nitrocellulose filters (MILIPORE), and fixed with 4% paraformaldehyde solution in PBS. Two small DiI (1,1′-dioctadecyl-3,3,3′,3′-tetramethylindocarbocyanine perchlorate) crystals were applied dorsally to the optic fissure. Retinae were stored in the dark at 37° C. for 10 days until the dye reached the axonal growth cones in the fissure, mounted in glycerol:PBS (9:1, v:v) and analysed using confocal microscopy.

[2] = test system: Glial Fibrillary acidic Protein (GFAP) expression; experiment: Reactive gliosis after spinal cord injury (GFAP staining); assay type: in vivo, mouse; details: D5 following surgery
Protocol: At D5, lesioned animals which received either p65 (n=3) or reversed p65 (n=3) were transcardiacally perfused. Spinal cords were sectioned in the sagittal plane at 20 μm intervals in blocks of 10 mm length at the lesion site. To examine lesion extent, Nissl staining was performed in series of 1-in-6 sections in all animals. Series of 1-in-3 sections were stained with the MenB anti-PSA (mouse IgM) and/or anti-GFAP (mouse IgG) antibodies.
To assess the effect of the peptide, quantification of the Glial Fibrillary acidic Protein (GFAP) expression as an index of reactive gliosis, was undertaken in a subset of animals taken D5 following surgery. These animals were selected in a blinded manner for quantification. 3 p65 (10 slices per animal) and 3 p65-reverse (10 slices per animal) animals were analyzed. Double-labelling was performed with MenB anti-PSA antibody. Quantification was also performed in a blinded manner.

mAb 735 = experiment: Competitive ELISA of biotinylated peptide-BSA conjugates on anti-PSA mAb; assay type: binding; details: for Binding of peptide to mAb 735 in competitive ELISA (percentage of binding): biotinylated peptide-BSA conjugate
From the text: • mAb 735 and 30H12 • MaxiSorp™ plates (NUNC) for coating the antibody: ELISA plates • microtiter plates (NUNC) for peptide dilution: dilution plates • Biotinylated peptide-BSA conjugates prepared as above described • Extravidin alkaline phosphatase-avidin conjugate (SIGMA E2636) • p-nitrophenyl-phosphatase alkaline substrate (SIGMA 104-105) 2.1.2) Buffers • PBS pH 7.4 • Blocking solution: 0.5% BSA in PBS • TBS • TBST: TBS containing 0.05% Tween 20 • Extravidin alkaline phosphatase-avidin conjugate solution: 1/5000 in TBST • Alkaline phosphatase substrate solution; 1 tablet in 5 ml 50 mM NaHCO3, 1 mM MgCl2 solution, […]) Method
Maxisorp™ plate wells were coated with 100 μl mAb solution (25 μg/ml) for 2 h at room temperature. The control wells of the ELISA plates were only coated with the blocking solution. In parallel, the peptide-BSA conjugate dilution plates were blocked with 200 μl blocking solution for 2 h. The antibody coated wells and the control wells were blocked with 200 μl blocking solution for 1 h. In parallel the peptide-BSA conjugate dilution plates were washed 6 times with TBST and 120 μl TBST was added to the wells. An appropriate volume of peptide-BSA conjugate solution was added to the first well and the volume adjusted to 140 μl with TBST. The peptide-BSA conjugate in well one was diluted in the ratio 1/7 by taking 20 μl out of the first well and transferring into the second also to achieve the total volume of 140 μl. This was repeated for the remaining wells. The peptide-BSA conjugate dilutions for the control wells were done the same way. The blocked ELISA plates were washed 6 times with TBST and the peptide-BSA conjugate dilutions or 100 μl of the mixed competitor solution was added to the wells. After incubation for 1 h, the wells were washed 10 times with TBST and 100 μl of the alkaline phosphatase substrate solution was added to the wells. The plates were read out after 10 to 60 min using a microplate reader at 405 nm.
The specificity of peptide p21 (SEQ ID NO: 1) was investigated in a competition ELISA using biotinylated p21-BSA conjugate and a randomized variant of p21 (p22) conjugate as a control. The results presented in Tables X and XI are expressed as percentage of binding by comparison with peptide p21 at the highest concentration (9.45 10^-5 M) which corresponds to 100% binding.

[3] = peptide-BSA conjugate, in words

Sequence: CSSVTAWTTGCG [p65]
- Increase of the number of GFP positive cells present in the olfactory bulb by comparison with the control ([1]; 3 days after the graft): 17 times
- Number of GFP positive cells migrating to the olfactory bulb ([1]; by comparison with the control, from 3 days post-engraftment): increases significantly
- Axon guidance and fasciculation in retina in vivo (chick retina axons): axons guidance and fasciculation defects
- Reduction of reactive gliosis (GFAP staining) compared with reverse p65-treatment [2]: 40%

Sequence: DSPLVPFIDFHP [p21]
- Binding of peptide to mAb 735 in competitive ELISA (percentage of binding) (mAb 735; peptide 1.62 10^−9 M, + chondroitin sulfate C): 50 ± 1%
- Binding of peptide to mAb 735 in competitive ELISA (percentage of binding) (mAb 735; peptide 1.62 10^−9 M, + colominic acid 1 mM): 0 ± 1%
- Binding of peptide to mAb 735 in competitive ELISA (percentage of binding) (mAb 735; peptide 1.62 10^−9 M, no competitor): 56 ± 4%
- Binding of peptide to mAb 735 in competitive ELISA (percentage of binding) (mAb 735; peptide 1.67 10^−5 M, + chondroitin sulfate C): 99 ± 4%
- Binding of peptide to mAb 735 in competitive ELISA (percentage of binding) (mAb 735; peptide 1.67 10^−5 M, + colominic acid 1 mM): 34 ± 3%
- Binding of peptide to mAb 735 in competitive ELISA (percentage of binding) (mAb 735; peptide 1.67 10^−5 M, no competitor): 93 ± 10%
- Binding of peptide to mAb 735 in competitive ELISA (percentage of binding) (mAb 735; peptide 2.86 10^−9 M, + chondroitin sulfate C): 11 ± 2%
- Binding of peptide to mAb 735 in competitive ELISA (percentage of binding) (mAb 735; peptide 2.86 10^−9 M, + colominic acid 1 mM): 0 ± 0%
- Binding of peptide to mAb 735 in competitive ELISA (percentage of binding) (mAb 735; peptide 2.86 10^−9 M, no competitor): 13 ± 1%
- Binding of peptide to mAb 735 in competitive ELISA (percentage of binding) (mAb 735; peptide 2.94 10^−6 M, + chondroitin sulfate C): 99 ± 8%
- Binding of peptide to mAb 735 in competitive ELISA (percentage of binding) (mAb 735; peptide 2.94 10^−6 M, + colominic acid 1 mM): 23 ± 1%
- Binding of peptide to mAb 735 in competitive ELISA (percentage of binding) (mAb 735; peptide 2.94 10^−6 M, no competitor): 95 ± 1%
- Binding of peptide to mAb 735 in competitive ELISA (percentage of binding) (mAb 735; peptide 5.04 10^−10 M, + chondroitin sulfate C): 3 ± 0%
- Binding of peptide to mAb 735 in competitive ELISA (percentage of binding) (mAb 735; peptide 5.04 10^−10 M, + colominic acid 1 mM): 0 ± 0%
- Binding of peptide to mAb 735 in competitive ELISA (percentage of binding) (mAb 735; peptide 5.04 10^−10 M, no competitor): 2 ± 0%
- Binding of peptide to mAb 735 in competitive ELISA (percentage of binding) (mAb 735; peptide 5.20 10^−7 M, + chondroitin sulfate C): 94 ± 7%
- Binding of peptide to mAb 735 in competitive ELISA (percentage of binding) (mAb 735; peptide 5.20 10^−7 M, + colominic acid 1 mM): 15 ± 3%
- Binding of peptide to mAb 735 in competitive ELISA (percentage of binding) (mAb 735; peptide 5.20 10^−7 M, no competitor): 91 ± 2%
- Binding of peptide to mAb 735 in competitive ELISA (percentage of binding) (mAb 735; peptide 8.89 10^−11 M, + chondroitin sulfate C): 2 ± 0%
- Binding of peptide to mAb 735 in competitive ELISA (percentage of binding) (mAb 735; peptide 8.89 10^−11 M, + colominic acid 1 mM): 0 ± 0%
- Binding of peptide to mAb 735 in competitive ELISA (percentage of binding) (mAb 735; peptide 8.89 10^−11 M, no competitor): 0 ± 0%
- Binding of peptide to mAb 735 in competitive ELISA (percentage of binding) (mAb 735; peptide 9.27 10^−8 M, + chondroitin sulfate C): 92 ± 2%
- Binding of peptide to mAb 735 in competitive ELISA (percentage of binding) (mAb 735; peptide 9.27 10^−8 M, + colominic acid 1 mM): 5 ± 2%
- Binding of peptide to mAb 735 in competitive ELISA (percentage of binding) (mAb 735; peptide 9.27 10^−8 M, no competitor): 93 ± 9%
- Binding of peptide to mAb 735 in competitive ELISA (percentage of binding) (mAb 735; peptide 9.45 10^−5 M, + chondroitin sulfate C): 96 ± 8%
- Binding of peptide to mAb 735 in competitive ELISA (percentage of binding) (mAb 735; peptide 9.45 10^−5 M, + colominic acid 1 mM): 43 ± 3%
- Binding of peptide to mAb 735 in competitive ELISA (percentage of binding) (mAb 735; peptide 9.45 10^−5 M, no competitor): 100 ± 11%
- Binding of peptide to mAb 735 (mAb 735; [3]): binds specifically to mAb 735 in a concentration-dependent manner
- Effect of chondroitin sulfate C on peptide binding to mAb 735 (mAb 735; [3]): no influence
- Effect of colominic acid on peptide binding to mAb 735 (mAb 735; [3]): clear inhibition

Source: US7417025B2, “Use of poly-α2,8-sialic acid mimetic peptides to modulate NCAM functions” (Centre National de la Recherche Scientifique, priority 2002, dated 2008)
